For test [1], the target named is T1, Neuraminidase (Influenza A virus, UniProt B4URF0). More on the design: species or system H7N3.
Test [2] deals with T1, Neuraminidase. More on the design: species or system H7N1.

T1 sequence (B4URF0 whole entry): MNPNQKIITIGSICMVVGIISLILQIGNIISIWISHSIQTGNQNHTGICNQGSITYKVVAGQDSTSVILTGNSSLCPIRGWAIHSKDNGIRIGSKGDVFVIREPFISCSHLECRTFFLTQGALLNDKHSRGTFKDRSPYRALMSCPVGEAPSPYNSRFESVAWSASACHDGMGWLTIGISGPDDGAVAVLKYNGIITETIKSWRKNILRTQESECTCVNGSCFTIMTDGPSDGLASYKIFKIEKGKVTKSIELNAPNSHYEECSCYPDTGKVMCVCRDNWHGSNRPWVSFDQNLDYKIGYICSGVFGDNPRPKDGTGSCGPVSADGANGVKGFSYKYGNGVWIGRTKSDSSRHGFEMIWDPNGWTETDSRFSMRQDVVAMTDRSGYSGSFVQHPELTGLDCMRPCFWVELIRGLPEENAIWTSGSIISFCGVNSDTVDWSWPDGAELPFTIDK

Usually IC50 stands for the concentration that inhibits the measured activity by half. For the molecule `C/C=C/C(=O)N[C@@H]1[C@@H](N=[N+]=[N-])CC(C(=O)O)=C[C@H]1OC(CC)CC`, the IC50 in test [1] stood at 99300 nM; in test [2], 51600 nM.

As for `CCC(CC)O[C@@H]1C=C(C(=O)O)C[C@H](N=[N+]=[N-])[C@H]1NC(C)=O`, the IC50 in test [1] turned out to be 2.2 nM; in test [2], 84.4 nM.

Consider `C/C=C/C(=O)N[C@@H]1[C@@H](N)CC(C(=O)O)=C[C@H]1OC(CC)CC`, for which the IC50 in test [1] was 4510 nM; in test [2], 139000 nM.

Turning to `C=CC(=O)N[C@@H]1[C@@H](N)CC(C(=O)O)=C[C@H]1OC(CC)CC`, the IC50 in test [1] came to 0.1 nM; in test [2], 31.8 nM.

Turning to `C=CC(=O)N[C@@H]1[C@@H](NCC(C)C)CC(C(=O)O)=C[C@H]1OC(CC)CC`, the half-inhibitory concentration (IC50) in test [1] was found to be 28.1 nM; in test [2] it was 14.6 nM.

Values taken from ChEMBL document CHEMBL1955717, “Synthesis and in vitro study of novel neuraminidase inhibitors against avian influenza virus” (Bioorg Med Chem, 2012).
